Data from the supplement of paper PMC12463676, “Small-molecule dissolution of stress granules by redox modulation benefits ALS models” (Nature Chemical Biology, 2025).

Experiments:
lipoamide = compound: NC(=O)CCCCC1CCSS1 [lipoamide]; experiment: thermal stability z-score vs DMSO; higher = more thermally stabilized by treatment; details: HeLa, lipoamide concentration 100 µM
Experimental: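 Cellular thermal proteome profiling in HeLa cells. Cells were treated with 100 µM lipoamide for 1 h, with or without 1 mM arsenate for a further 1 h, then heated to ten temperatures (37-66.3 °C), and soluble protein was quantified by TMT mass spectrometry relative to 0.1% DMSO controls. The thermal stability score (sum of log2 fold changes minus the abundance score) was transformed to a z-score; mean of n = 3 experiments.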

potassium arsenate = compound: O=[As]([O-])(O)O.[K+] [potassium arsenate]; experiment: as above; details: HeLa; arsenate concentration 1 mM
Experimental: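 Cellular thermal proteome profiling in HeLa cells treated with 1 mM arsenate for 1 h (DMSO pretreatment), heated to ten temperatures (37-66.3 °C). Soluble protein was quantified by TMT mass spectrometry relative to DMSO controls; the thermal stability score was transformed to a z-score; mean of n = 3 experiments.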

[1] = arsenate co-treatment: 1 mM arsenate 1 h
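Further: each temperature applied for 3 min, abundance score taken as mean log2 fold change at the two lowest temperatures, z-score obtained by mean subtraction and division by SD.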

PKN3 (UniProt Q6P5Z2)
thermal stability z-score (lipoamide; [1]): -0.237
thermal stability z-score (lipoamide; arsenate co-treatment: none): 0.334
thermal stability z-score (potassium arsenate): 0.231

PKP2 (UniProt Q99959)
thermal stability z-score (lipoamide; [1]): 0.0483
thermal stability z-score (lipoamide; arsenate co-treatment: none): -0.112
thermal stability z-score (potassium arsenate): -0.371

PKP3 (UniProt Q9Y446)
thermal stability z-score (lipoamide; [1]): -0.116
thermal stability z-score (lipoamide; arsenate co-treatment: none): 0.603
thermal stability z-score (potassium arsenate): 0.191

PLA2G4A (UniProt P47712)
thermal stability z-score (lipoamide; [1]): -0.308
thermal stability z-score (lipoamide; arsenate co-treatment: none): -0.439
thermal stability z-score (potassium arsenate): -0.294

PLA2G12A (UniProt Q9BZM1)
thermal stability z-score (lipoamide; [1]): -0.0117
thermal stability z-score (lipoamide; arsenate co-treatment: none): -0.134
thermal stability z-score (potassium arsenate): -0.111

PLA2G15 (UniProt Q8NCC3)
UniProt Q8NCC3, sequence (Q8NCC3 whole entry): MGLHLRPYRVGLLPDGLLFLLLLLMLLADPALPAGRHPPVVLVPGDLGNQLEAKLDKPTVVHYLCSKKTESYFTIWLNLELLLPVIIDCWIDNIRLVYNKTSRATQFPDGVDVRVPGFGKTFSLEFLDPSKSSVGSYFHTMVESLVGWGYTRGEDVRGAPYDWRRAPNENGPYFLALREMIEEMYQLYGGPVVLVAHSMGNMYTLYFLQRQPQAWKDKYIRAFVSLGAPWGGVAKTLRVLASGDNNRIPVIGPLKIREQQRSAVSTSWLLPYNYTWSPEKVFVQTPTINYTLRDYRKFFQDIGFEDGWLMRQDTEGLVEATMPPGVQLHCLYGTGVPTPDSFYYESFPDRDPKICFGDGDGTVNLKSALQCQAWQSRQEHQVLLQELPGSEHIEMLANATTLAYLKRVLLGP
thermal stability z-score (lipoamide; [1]): -0.718
thermal stability z-score (lipoamide; arsenate co-treatment: none): -0.487
thermal stability z-score (potassium arsenate): 0.38

PLAA (UniProt Q9Y263)
thermal stability z-score (lipoamide; [1]): 0.0745
thermal stability z-score (lipoamide; arsenate co-treatment: none): -0.41
thermal stability z-score (potassium arsenate): -0.0864

PLAUR (UniProt Q03405)
thermal stability z-score (lipoamide; [1]): -1.4
thermal stability z-score (lipoamide; arsenate co-treatment: none): -2.11
thermal stability z-score (potassium arsenate): -0.768

PLBD2 (UniProt Q8NHP8)
thermal stability z-score (lipoamide; [1]): -0.0663
thermal stability z-score (lipoamide; arsenate co-treatment: none): 0.0581
thermal stability z-score (potassium arsenate): 0.464

PLCB3 (UniProt Q01970)
UniProt Q01970, sequence (Q01970 whole entry): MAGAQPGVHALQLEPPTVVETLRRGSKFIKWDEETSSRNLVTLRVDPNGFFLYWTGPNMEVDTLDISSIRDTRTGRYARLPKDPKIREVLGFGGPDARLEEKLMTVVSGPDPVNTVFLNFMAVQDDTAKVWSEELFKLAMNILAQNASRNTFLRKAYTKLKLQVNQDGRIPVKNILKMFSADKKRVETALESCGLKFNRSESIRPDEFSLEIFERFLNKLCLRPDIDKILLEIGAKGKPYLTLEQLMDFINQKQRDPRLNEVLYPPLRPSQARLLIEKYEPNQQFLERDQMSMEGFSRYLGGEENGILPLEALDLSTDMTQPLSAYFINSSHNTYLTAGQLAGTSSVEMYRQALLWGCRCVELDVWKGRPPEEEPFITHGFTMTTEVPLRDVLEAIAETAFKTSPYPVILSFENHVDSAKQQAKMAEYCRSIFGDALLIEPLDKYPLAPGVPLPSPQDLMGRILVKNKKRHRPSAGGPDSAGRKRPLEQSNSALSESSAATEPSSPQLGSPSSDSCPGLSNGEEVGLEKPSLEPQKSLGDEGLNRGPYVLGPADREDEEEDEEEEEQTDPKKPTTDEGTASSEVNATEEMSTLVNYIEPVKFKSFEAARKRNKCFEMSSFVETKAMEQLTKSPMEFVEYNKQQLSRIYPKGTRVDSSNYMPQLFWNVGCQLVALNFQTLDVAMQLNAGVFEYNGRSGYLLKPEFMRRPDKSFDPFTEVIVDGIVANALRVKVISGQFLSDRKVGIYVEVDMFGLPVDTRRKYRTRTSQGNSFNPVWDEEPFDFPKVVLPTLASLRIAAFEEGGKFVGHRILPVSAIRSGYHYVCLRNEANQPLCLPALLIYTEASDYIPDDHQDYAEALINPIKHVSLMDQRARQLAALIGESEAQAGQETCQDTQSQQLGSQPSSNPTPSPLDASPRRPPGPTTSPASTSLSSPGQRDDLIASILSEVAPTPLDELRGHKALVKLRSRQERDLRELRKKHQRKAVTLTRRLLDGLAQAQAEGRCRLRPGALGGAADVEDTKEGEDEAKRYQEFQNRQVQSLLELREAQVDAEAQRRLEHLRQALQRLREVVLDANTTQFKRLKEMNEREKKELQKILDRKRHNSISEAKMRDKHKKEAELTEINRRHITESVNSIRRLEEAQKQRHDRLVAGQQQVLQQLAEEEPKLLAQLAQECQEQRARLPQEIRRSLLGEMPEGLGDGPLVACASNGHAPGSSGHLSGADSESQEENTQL
thermal stability z-score (lipoamide; [1]): -0.0239
thermal stability z-score (lipoamide; arsenate co-treatment: none): -0.358
thermal stability z-score (potassium arsenate): -0.557

PLCD3 (UniProt Q8N3E9)
UniProt Q8N3E9, sequence (Q8N3E9 whole entry): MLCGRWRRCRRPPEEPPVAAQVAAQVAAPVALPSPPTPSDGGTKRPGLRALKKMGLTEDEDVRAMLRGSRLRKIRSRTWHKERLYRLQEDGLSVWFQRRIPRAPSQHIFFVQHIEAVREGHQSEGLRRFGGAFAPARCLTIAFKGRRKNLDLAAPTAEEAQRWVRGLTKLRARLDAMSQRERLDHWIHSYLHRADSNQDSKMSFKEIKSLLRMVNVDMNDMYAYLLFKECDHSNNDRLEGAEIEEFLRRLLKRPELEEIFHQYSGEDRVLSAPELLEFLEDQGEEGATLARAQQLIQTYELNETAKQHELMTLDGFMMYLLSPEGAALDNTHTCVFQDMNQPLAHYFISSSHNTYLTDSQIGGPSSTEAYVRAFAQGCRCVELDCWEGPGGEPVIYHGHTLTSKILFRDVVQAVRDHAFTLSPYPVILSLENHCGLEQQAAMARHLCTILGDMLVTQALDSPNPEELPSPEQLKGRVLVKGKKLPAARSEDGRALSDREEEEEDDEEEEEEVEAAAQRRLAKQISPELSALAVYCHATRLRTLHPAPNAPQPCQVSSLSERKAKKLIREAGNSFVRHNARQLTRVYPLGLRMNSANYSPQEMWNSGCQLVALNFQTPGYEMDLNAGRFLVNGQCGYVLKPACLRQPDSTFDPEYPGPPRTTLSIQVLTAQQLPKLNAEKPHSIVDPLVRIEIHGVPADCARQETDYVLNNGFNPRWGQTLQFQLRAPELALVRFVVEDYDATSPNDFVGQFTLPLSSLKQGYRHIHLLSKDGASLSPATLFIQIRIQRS
thermal stability z-score (lipoamide; [1]): 0.235
thermal stability z-score (lipoamide; arsenate co-treatment: none): 0.151
thermal stability z-score (potassium arsenate): 0.0088

PLCG1 (UniProt P19174)
thermal stability z-score (lipoamide; [1]): 0.538
thermal stability z-score (lipoamide; arsenate co-treatment: none): 0.247
thermal stability z-score (potassium arsenate): 0.623

PLCL2 (UniProt Q9UPR0)
thermal stability z-score (lipoamide; [1]): -0.2
thermal stability z-score (lipoamide; arsenate co-treatment: none): -0.373
thermal stability z-score (potassium arsenate): -0.417

PLD1 (UniProt Q13393)
thermal stability z-score (lipoamide; [1]): -0.0197
thermal stability z-score (lipoamide; arsenate co-treatment: none): 0.0638
thermal stability z-score (potassium arsenate): 0.0184

PLD3 (UniProt Q8IV08)
UniProt Q8IV08, sequence (Q8IV08 whole entry): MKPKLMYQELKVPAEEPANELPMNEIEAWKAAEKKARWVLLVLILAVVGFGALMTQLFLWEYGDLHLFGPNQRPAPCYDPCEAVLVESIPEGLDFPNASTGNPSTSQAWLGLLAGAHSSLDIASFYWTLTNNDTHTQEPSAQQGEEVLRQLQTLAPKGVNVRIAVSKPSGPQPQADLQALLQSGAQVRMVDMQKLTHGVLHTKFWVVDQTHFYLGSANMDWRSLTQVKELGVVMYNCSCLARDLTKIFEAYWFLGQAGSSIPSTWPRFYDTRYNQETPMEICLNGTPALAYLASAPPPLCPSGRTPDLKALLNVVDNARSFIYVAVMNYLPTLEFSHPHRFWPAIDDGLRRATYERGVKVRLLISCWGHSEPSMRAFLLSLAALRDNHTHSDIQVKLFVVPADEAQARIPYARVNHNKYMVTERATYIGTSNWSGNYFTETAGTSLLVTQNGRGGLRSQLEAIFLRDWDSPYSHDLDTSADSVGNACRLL
thermal stability z-score (lipoamide; [1]): 0.32
thermal stability z-score (lipoamide; arsenate co-treatment: none): 0.424
thermal stability z-score (potassium arsenate): 0.817

PLEC (UniProt Q15149)
thermal stability z-score (lipoamide; [1]): 2.76
thermal stability z-score (lipoamide; arsenate co-treatment: none): 2.01
thermal stability z-score (potassium arsenate): -3.9

PLEKHA1 (UniProt Q9HB21)
UniProt Q9HB21, sequence (Q9HB21 whole entry): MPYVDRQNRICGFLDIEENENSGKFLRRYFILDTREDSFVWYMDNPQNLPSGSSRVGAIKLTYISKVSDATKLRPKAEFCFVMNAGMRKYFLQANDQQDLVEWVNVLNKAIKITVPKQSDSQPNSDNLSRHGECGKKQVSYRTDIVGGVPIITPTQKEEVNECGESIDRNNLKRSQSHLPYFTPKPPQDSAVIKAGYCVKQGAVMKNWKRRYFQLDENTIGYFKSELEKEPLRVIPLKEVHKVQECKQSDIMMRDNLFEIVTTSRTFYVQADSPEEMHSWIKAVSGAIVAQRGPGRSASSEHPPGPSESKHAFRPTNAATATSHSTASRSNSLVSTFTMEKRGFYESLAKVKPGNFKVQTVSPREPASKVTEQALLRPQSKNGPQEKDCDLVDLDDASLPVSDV
thermal stability z-score (lipoamide; [1]): -0.0949
thermal stability z-score (lipoamide; arsenate co-treatment: none): -0.105
thermal stability z-score (potassium arsenate): -0.185

PLEKHA2 (UniProt Q9HB19)
thermal stability z-score (lipoamide; [1]): -0.216
thermal stability z-score (lipoamide; arsenate co-treatment: none): -0.168
thermal stability z-score (potassium arsenate): -0.321

PLEKHA5 (UniProt Q9HAU0)
thermal stability z-score (lipoamide; [1]): 0.191
thermal stability z-score (lipoamide; arsenate co-treatment: none): 0.254
thermal stability z-score (potassium arsenate): 0.0794

PLEKHB2 (UniProt Q96CS7)
UniProt Q96CS7, sequence (Q96CS7 whole entry): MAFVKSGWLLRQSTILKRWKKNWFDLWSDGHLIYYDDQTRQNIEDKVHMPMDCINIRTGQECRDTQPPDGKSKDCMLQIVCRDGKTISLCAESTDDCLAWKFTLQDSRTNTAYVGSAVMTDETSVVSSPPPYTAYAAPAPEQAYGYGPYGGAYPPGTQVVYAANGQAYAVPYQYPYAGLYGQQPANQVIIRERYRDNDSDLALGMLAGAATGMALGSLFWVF
thermal stability z-score (lipoamide; [1]): -0.698
thermal stability z-score (lipoamide; arsenate co-treatment: none): -0.101
thermal stability z-score (potassium arsenate): 0.675

PLEKHF1 (UniProt Q96S99)
thermal stability z-score (lipoamide; [1]): -0.218
thermal stability z-score (lipoamide; arsenate co-treatment: none): -0.0271
thermal stability z-score (potassium arsenate): -0.0692

PLEKHF2 (UniProt Q9H8W4)
thermal stability z-score (lipoamide; [1]): -0.1
thermal stability z-score (lipoamide; arsenate co-treatment: none): -0.117
thermal stability z-score (potassium arsenate): -0.196

PLEKHO2 (UniProt Q8TD55)
thermal stability z-score (lipoamide; [1]): 0.146
thermal stability z-score (lipoamide; arsenate co-treatment: none): 0.015
thermal stability z-score (potassium arsenate): -0.257

PLGRKT (UniProt Q9HBL7)
thermal stability z-score (lipoamide; [1]): 0.684
thermal stability z-score (lipoamide; arsenate co-treatment: none): 0.147
thermal stability z-score (potassium arsenate): 0.783

PLIN2 (UniProt Q99541)
thermal stability z-score (lipoamide; [1]): 0.587
thermal stability z-score (lipoamide; arsenate co-treatment: none): 0.338
thermal stability z-score (potassium arsenate): 2.1

PLIN3 (UniProt O60664)
thermal stability z-score (lipoamide; [1]): 0.559
thermal stability z-score (lipoamide; arsenate co-treatment: none): 0.461
thermal stability z-score (potassium arsenate): 0.704

PLIN4 (UniProt Q96Q06)
thermal stability z-score (lipoamide; [1]): 0.188
thermal stability z-score (lipoamide; arsenate co-treatment: none): 0.324
thermal stability z-score (potassium arsenate): 0.741

PLK1 (UniProt P53350)
thermal stability z-score (lipoamide; [1]): -0.0395
thermal stability z-score (lipoamide; arsenate co-treatment: none): -0.233
thermal stability z-score (potassium arsenate): -0.584

PLOD1 (UniProt Q02809)
UniProt Q02809, sequence (Q02809 whole entry): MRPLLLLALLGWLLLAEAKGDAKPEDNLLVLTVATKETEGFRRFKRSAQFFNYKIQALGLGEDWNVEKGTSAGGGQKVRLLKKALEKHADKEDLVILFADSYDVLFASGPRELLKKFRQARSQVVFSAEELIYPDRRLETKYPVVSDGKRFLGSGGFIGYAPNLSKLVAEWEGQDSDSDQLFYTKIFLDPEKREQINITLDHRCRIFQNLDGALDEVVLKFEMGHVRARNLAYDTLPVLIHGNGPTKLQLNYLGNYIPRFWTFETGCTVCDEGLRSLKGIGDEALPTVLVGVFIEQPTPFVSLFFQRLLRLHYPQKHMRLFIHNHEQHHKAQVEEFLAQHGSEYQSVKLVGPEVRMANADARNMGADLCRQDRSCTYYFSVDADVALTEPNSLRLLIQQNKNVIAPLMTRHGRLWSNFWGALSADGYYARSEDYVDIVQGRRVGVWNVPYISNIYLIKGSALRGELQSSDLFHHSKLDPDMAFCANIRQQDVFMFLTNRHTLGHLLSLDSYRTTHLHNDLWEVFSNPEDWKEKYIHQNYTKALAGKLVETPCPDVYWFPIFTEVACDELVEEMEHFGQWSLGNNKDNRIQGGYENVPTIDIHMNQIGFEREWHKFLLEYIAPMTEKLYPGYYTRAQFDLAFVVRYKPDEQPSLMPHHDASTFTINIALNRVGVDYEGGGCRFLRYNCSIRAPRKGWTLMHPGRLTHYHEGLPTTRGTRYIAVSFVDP
thermal stability z-score (lipoamide; [1]): -4.26
thermal stability z-score (lipoamide; arsenate co-treatment: none): -3.77
thermal stability z-score (potassium arsenate): 1.2

PLOD2 (UniProt O00469)
UniProt O00469, sequence (O00469 whole entry): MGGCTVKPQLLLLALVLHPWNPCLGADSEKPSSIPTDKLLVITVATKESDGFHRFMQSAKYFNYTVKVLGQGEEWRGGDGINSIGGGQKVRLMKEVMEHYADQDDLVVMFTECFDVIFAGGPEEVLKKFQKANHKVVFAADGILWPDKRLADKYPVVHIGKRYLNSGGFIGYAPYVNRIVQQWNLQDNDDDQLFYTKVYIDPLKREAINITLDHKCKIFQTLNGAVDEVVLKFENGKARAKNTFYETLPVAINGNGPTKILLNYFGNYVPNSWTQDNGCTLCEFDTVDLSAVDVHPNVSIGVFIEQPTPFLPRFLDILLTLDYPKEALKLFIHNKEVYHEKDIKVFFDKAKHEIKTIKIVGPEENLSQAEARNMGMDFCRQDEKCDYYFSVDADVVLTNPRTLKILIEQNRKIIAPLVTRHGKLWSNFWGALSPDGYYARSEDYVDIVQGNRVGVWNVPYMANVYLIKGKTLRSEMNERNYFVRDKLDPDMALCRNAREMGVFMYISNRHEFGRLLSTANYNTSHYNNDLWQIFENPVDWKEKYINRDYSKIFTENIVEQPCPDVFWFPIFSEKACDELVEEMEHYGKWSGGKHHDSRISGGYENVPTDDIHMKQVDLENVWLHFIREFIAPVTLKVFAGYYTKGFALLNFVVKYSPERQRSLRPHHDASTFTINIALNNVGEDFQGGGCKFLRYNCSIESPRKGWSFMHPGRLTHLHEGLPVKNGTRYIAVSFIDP
thermal stability z-score (lipoamide; [1]): -3.92
thermal stability z-score (lipoamide; arsenate co-treatment: none): -3.35
thermal stability z-score (potassium arsenate): 0.877

PLOD3 (UniProt O60568)
thermal stability z-score (lipoamide; [1]): -5.29
thermal stability z-score (lipoamide; arsenate co-treatment: none): -4.8
thermal stability z-score (potassium arsenate): 0.333

PLPP1 (UniProt O14494)
thermal stability z-score (lipoamide; [1]): -0.53
thermal stability z-score (lipoamide; arsenate co-treatment: none): 0.262
thermal stability z-score (potassium arsenate): 0.324

PLPP2 (UniProt O43688)
thermal stability z-score (lipoamide; [1]): -0.387
thermal stability z-score (lipoamide; arsenate co-treatment: none): -0.14
thermal stability z-score (potassium arsenate): -0.114

PLPP3 (UniProt O14495)
thermal stability z-score (lipoamide; [1]): 0.394
thermal stability z-score (lipoamide; arsenate co-treatment: none): 0.448
thermal stability z-score (potassium arsenate): 0.384

PLRG1 (UniProt O43660)
thermal stability z-score (lipoamide; [1]): 1.67
thermal stability z-score (lipoamide; arsenate co-treatment: none): -0.0202
thermal stability z-score (potassium arsenate): -0.346

PLS1 (UniProt Q14651)
thermal stability z-score (lipoamide; [1]): 0.258
thermal stability z-score (lipoamide; arsenate co-treatment: none): 0.506
thermal stability z-score (potassium arsenate): -0.0678
